# Measurements published in patent publication US9854822B2, “Process for increasing the yield of Lactococcus lactis subsp, lactis and/or Lactococcus lactis subsp. cremoris bacteria cultures during aerobic fermentation” (CHR. HANSEN A/S, priority 2005, dated 2018).
# Tests used:
# [1] = system: L. lactis subsp. lactis CHCC2862; experiment: Proteomics (2D protein gels) for detection of exogenous purines in the medium; assay type: cell-based, Lactococcus lactis subsp. lactis; conditions: 0.2% inosine, SA medium with 1% glucose
# Experimental: To set up a specific method for detection of the presence/absence of exogenous purines in the medium we inoculated L. lactis subsp. lactis CHCC2862 into defined SA medium with 1% glucose. This medium is devoid of nucleo compounds (Jensen & Hammer 1993). Cultures were set up at 30° C. with and without 0.2% inosine and incubated overnight. Exponentially growing cells were then inoculated into fresh medium at an OD600 of around 0.1. At OD 0.8 (exponential growth) and in stationary phase cells were harvested and 2D protein gels were produced.
# In general around 3-400 protein spots were detectable on the gels with the pH range 4-7. For OD 0.8 there were less than 10 spots that were present from the culture without inosine, but absent (or very weak) from the culture with inosine. […] Four of the strongest spots present only on the gel produced from the culture without purines were subjected to in-gel digestion and mass spectrometry identification. The proteins were identified as: purH (bifunctional purine biosynthesis protein), purM (phosphoribosylaminoimidazole synthase), yphF (phosphoribosylformylglycinamidine synthase PurS), and fhs (formyltetrahydrofolate synthetase). […]
# Identification of proteins. The identity of proteins in chosen spots was determined by in-gel digestion and analysis of peptide profile and amino acid content using mass spectrometry. […]
# [2] = system: Streptococcus thermophilus culture CHQ-18; experiment: Yield of Streptococcus thermophilus fermentation at standard anaerobic high-OD conditions; assay type: cell-based; conditions: 0.2% w/w added, 3 L tank, 40° C., pH 6.0
# Experimental: 0.2% w/w inosine is approximately 7 mM inosine.
# This experiment was performed to investigate the effect of adding extra purine containing compounds to an already enriched and optimized media to be used for anaerobic fermentation at high OD-conditions.
# The present experiment was performed using the commercially available Streptococcus thermophilus culture CHQ-18, which is available from Chr. Hansen A/S, Hoersholm, Denmark.
# The cultures were cultured in a rich medium based on complex medium components, BioSpringer yeast extract 207, Arla skim milk powder (Milex 240), and lactose.
# The fermentation was performed in a 3 L agitated fermentation tank at 40° C. using 0.1% (w/w) of the culture mentioned above as inoculum. The pH was maintained at 6.0 by addition of 13.4 N NH4OH. Anaerobic conditions were ensured by flushing with nitrogen in head space (1.5 l/min). Agitation was 300 rpm.
# The yields of the fermentations were specified by the obtained biomass measured as the Optical Density at 600 nm (OD600) of unconcentrated samples sampled during the fermentation.
# [3] = system: R 604 culture (Lactococcus lactis); experiment: Yield of Lactococcus lactis fermentation at standard anaerobic high-OD conditions; assay type: cell-based
# Experimental: To illustrate the effect of adding extra purine containing compounds to an already enriched and optimized media two different types of industrial scale fermentation were compared, one with and one without 0.3% w/w inosine added.
# The present experiment was performed using the commercially available R 604 culture, which is available from Chr. Hansen A/S, Hoersholm, Denmark (catalogue no. 200113).
# The cultures were cultured in a medium having the following composition: Casein hydrolysate (Oxoid, Basingstoke, UK, Product Code L41), 30 g/l; Primatone RL (Quest, Naarden, The Netherlands, Product Code 5X59051), 30 g/l; soya peptone (Oxoid, Basingstoke, UK, Product Code L44), 30 g/l; yeast extract (Oxoid, Basingstoke, UK, Product Code L21), 15 g/l; MgSO4, 1.5 g/l; Na-ascorbate, 3 g/l; and lactose 50 g/l.
# The medium was sterilized by UHT-treatment (143° C. for 8 sec.).
# The fermentation was performed in a 550 L industrial fermentation tank without aeration at 30° C. using 1% (w/w) of the culture mentioned above as inoculum. At high OD conditions the fermentation is essentially anaerobic. The cultures were allowed to acidify to pH 6.0. The pH was subsequently maintained at 6.0 by controlled addition of 13.4 N NH4OH.
# When no further base consumption was detected, the respective culture was cooled down to about 10° C.
# Following cooling, the bacteria in culture media were concentrated 6-18 times by centrifugation and subsequently frozen as pellets in liquid nitrogen at one atmosphere of pressure to produce a so-called frozen Direct Vat Set culture (F-DVS). The F-DVS pellets were stored at −50° C. until further analysis
# The yields of the fermentations were specified in two different ways: • 1) by the obtained biomass measured as the Optical Density at 600 nm (OD600), or • 2) by kg of F-DVS culture pr. 100 L fermentation medium wherein the F-DVS culture have an “acidification activity” of 4.8-5.1 according to the Pearce test described in Example 2: Analytical Procedure QAm-043.
# [4] = 0.3% w/w inosine, 550 L tank without aeration, 30° C., pH 6.0
structure (smiles),measurement,setting,value
OC[C@H]1O[C@@H](n2cnc3c(O)ncnc32)[C@H](O)[C@@H]1O [inosine],"Protein spots present from the culture without inosine, but absent (or very weak) from the culture with inosine","[1]; 30° C., OD 0.8 (exponential growth), gels pH 4-7",less than 10 spots
same,Absence/presence pattern of purine de novo synthesis protein spots,[1]; cells in stationary phase,a similar absence/presence pattern was obtained
same,"Effect of enhancing agent on yield (biomass as OD600, FIG. 1)",[2],did not result in increased yields
same,Effect of enhancing agent on yield,[3]; 0.3% w/w inosine added to the anaerobic culture medium before the start of the fermentation,did not result in increased yields
same,Yield according to Pearce,[3]; [4],4.98
same,Yield as OD600,[3]; [4],25.2
